The values below are quoted from earlier work in PMC9826446 (Journal of Bone and Mineral Research, 2022).

Series [1] deals with TNAP. The conditions noted are these: not TNAP‐specific; ref [15], [16].
Series [2] has as its system ectopic calcification. The conditions noted are these: animal models of PXE; ref [1], [7], [19].
In series [3] the test system is vascular calcification. The settings on record: patients with PXE, phase 2 trial; ref [27].

For `c1ccc([C@H]2CN3CCSC3=N2)cc1` [levamisole], the “inhibition on TNAP” value in series [1] is “only weak inhibition”.

As to `Cn1c(=O)c2[nH]cnc2n(C)c1=O` [theophylline], the “inhibition on TNAP” value in series [1] is “only weak inhibition”.

Take `COc1ccc(Cl)cc1S(=O)(=O)Nc1cncc(C(N)=O)c1` [SBI‐425, 5‐((5‐chloro‐2‐methoxyphenyl)sulfonamido)nicotinamide]: in series [2], the anticalcification effects result is listed as “significant anticalcification effects”.

Take `CC(O)(P(=O)(O)O)P(=O)(O)O` [etidronate]: the vascular calcification entry in series [3] is recorded as “may reduce vascular calcification”.
